According to publication PMC6154683, “High-Throughput Determination of Sodium Danshensu in Beagle Dogs by the LCMS/MS Method, Employing Liquid-Liquid Extraction Based on 96-Well Format Plates” (Molecules : A Journal of Synthetic Chemistry and Natural …, 2017):

How the values were obtained:
[1] = Pharmacokinetic and bioavailability study in beagle dogs after intravenous and oral administration (plasma, LC-MS/MS); format: in vivo; conditions: for C0: mean ± SD
Protocol: All the studies on animals were done in accordance with the Guidelines for the Care and Use of Laboratory Animals. Beagle dogs (~10 kg) were purchased from the Shanghai Slack Experimental Animal Co., Ltd. (Shanghai, China) and acclimated in the laboratory for 1 week prior to the experiments, housed in separate cages under room temperature with a 12 h light/dark cycle, and free access to standard diet and water. All the beagle dogs were fasted for 12 h before the experiments with free access to water.
For pharmacokinetics study, 24 beagle dogs were randomly divided into four groups (n = 6). Four different dosages (5 mg/kg, 10 mg/kg, 15 mg/kg I.V., 60 mg/kg P.O.) were designed and were assigned randomly to the four groups of beagle dogs. Blood samples (500 μL) were withdrawn from the foreleg vein into heparinized tubes in strict accordance with the time points of the protocol made in advance. Then after centrifuging at 8000 rpm for 10 min, the supernatant plasma sample was transferred into another tube and frozen at −80 °C until analysis. The time points for blood sampling were listed as follows. Pre-dose and subsequently at 0, 0.03, 0.08, 0.17, 0.33, 0.67, 1, 1.5, 2, 3, 4, 6, 8, and 12 h were used for the three intravenous injection groups, and pre-dose, 0.08, 0.17, 0.25, 0.5, 0.75, 1, 1.5, 2, 3, 4, 6, 8, and 12 h were used for the oral administration group.
For plasma sample preparation, the LLE in 96-well format plate was used. Prior to analysis, all frozen plasma samples, calibration standards, and quality control samples were thawed and allowed to equilibrate at room temperature. The samples were vortexed adequately using a vortex mixer (Beijing Targintech Co. Ltd., Beijing, China) before pipetting. Samples were prepared using LLE in 96-well deep format plate (2 mL, Corning Life Sciences—Axygen Inc., Union City, CA, USA). An automatic multichannel pipette (INTEGRA Biosciences AG, Zizers, Switzerland) was used for liquid transfer steps. Aliquots of 100 μL plasma were transferred into the 96-well deep format plate. Aliquots of 10 μL of IS solution (25 ng/mL) were added to each well except for the well designated for the double blank plasma. Then 20 μL of 2 mol/L hydrochloric acid was added to each well of the plate, and vortexed for 30 s for mixing. The mixed sample was then extracted with 1000 μL methyl tert-butyl ether by vortex-mixing for 3 min in a platform shaker (Grant, Cambridge, UK). After centrifugation at 12,000 rpm for 10 min, 800 μL of the upper organic layer was transferred from the original sample plates into the respective positions of the new 2.0 mL deep 96-well plates. Extracts were concentrated to dryness by an automated concentration evaporation system at 30 °C under a gentle stream of nitrogen (Turbo Vap 96, Biotage AB, Uppsala, Sweden) for 15 min. After drying, the residue was reconstituted with 100 μL of methanol–water (50:50, v/v) and was then vortexed for 3 min and centrifuged for 10 min at 12,000 rpm. A 5 μL aliquot of the supernatant was injected into the LC-MS/MS system for analysis.
The pharmacokinetic analysis was performed using the non-compartmental model analysis. The concentration versus time data and the pharmacokinetic parameters including Cmax, t1/2, Tmax (h), AUC0-t, AUC0-12, MRT, CL, and Vd were assessed via non-compartmental analysis using the BAPP software (version 2.0, Center of Drug Metabolism and Pharmacokinetics, China Pharmaceutical University, Nanjing, china). The absolute bioavailability (%F) of sodium danshensu was estimated via AUC0→∞ values of oral and intravenous administration.

[2] = Stability of sodium danshensu in beagle dog plasma (QC samples); format: in vitro ADME; conditions: for Measured (mean ± SD): n = 3; for long-term stability in plasma (in words): beagle dog plasma stored at −80 °C for 20 days
Protocol: The analyte stability determinations comprised ambient temperature stability, long-term stability, autosampler stability, and freeze-thaw cycle stability, which were evaluated by analyzing two QC levels in triplicate. The QC samples were analyzed after storage at room temperature for 2 h, at −80 °C for 20 days, and in the autosampler at room temperature for at least 24 h after extraction and after three freeze-thaw cycles, which consisted of storage at −80 °C for a minimum of 12 h followed by thawing at room temperature.

[3] = dog, plasma, IV 5 mg/kg, beagle dogs
[4] = dog, plasma, IV 10 mg/kg, beagle dogs
[5] = dog, plasma, IV 15 mg/kg, beagle dogs
[6] = dog, plasma, PO 60 mg/kg, beagle dogs

## O=C([O-])[C@H](O)Cc1ccc(O)c(O)c1.[Na+] [sodium danshensu, sodium D-(+)-β-(3,4-dihydroxyphenyl) lactate]
[1]; [3]
  AUC(0-inf): 6870 ± 780 ng·h/mL
  AUC(0-t): 6710 ± 810 ng·h/mL
  MRT: 0.88 ± 0.41 h
  Vd: 6.63 ± 3.49 L
  clearance: 123 mL/min
  half-life: 2.3 ± 1.23 h
  C0: 36600 ± 3840 ng/mL
[1]; [4]
  AUC(0-inf): 8460 ± 430 ng·h/mL
  AUC(0-t): 8270 ± 380 ng·h/mL
  MRT: 1.08 ± 0.53 h
  Vd: 12.8 ± 5.5 L
  clearance: 197 mL/min
  half-life: 2.32 ± 1.33 h
  C0: 46700 ± 15200 ng/mL
[1]; [5]
  AUC(0-inf): 17800 ± 3040 ng·h/mL
  AUC(0-t): 17800 ± 3030 ng·h/mL
  MRT: 0.73 ± 0.05 h
  Vd: 6.36 ± 1.48 L
  clearance: 144 mL/min
  half-life: 1.64 ± 0.39 h
  C0: 79200 ± 18900 ng/mL
[1]; [6]
  AUC(0-inf): 22700 ± 2570 ng·h/mL
  AUC(0-t): 22200 ± 2480 ng·h/mL
  Cmax: 7920 ± 1770 ng/mL
  MRT: 4.23 ± 0.2 h
  Tmax: 2.83 ± 0.41 h
  half-life: 1.84 ± 0.29 h
[1]; dog, plasma, beagle dogs, estimated via AUC0→∞ of oral (60 mg/kg) and intravenous administration, read-out: mean absolute bioavailability (%F)
  bioavailability: 34.8%
[1]; one beagle dog plasma sample, 1.5 h after intravenous 10 mg/kg, read-out: assayed plasma concentration
  concentration at 1.5 h: 930 ng/mL
[2]; ambient temperature 2 h, spiked 20 ng/mL
  RE (relative error vs spiked): 5.0%
[2]; ambient temperature 2 h, spiked 20 ng/mL, beagle dog plasma
  Measured (mean ± SD): 21.00 ± 1.42 ng/mL
[2]; ambient temperature 2 h, spiked 800 ng/mL
  RE (relative error vs spiked): −3.6%
[2]; ambient temperature 2 h, spiked 800 ng/mL, beagle dog plasma
  Measured (mean ± SD): 771.45 ± 23.94 ng/mL
[2]; autosampler 24 h (extracted samples), spiked 20 ng/mL
  Measured (mean ± SD): 20.10 ± 1.22 ng/mL
[2]; autosampler 24 h (extracted samples), spiked 800 ng/mL
  Measured (mean ± SD): 772.49 ± 29.64 ng/mL
[2]; autosampler 24 h, spiked 20 ng/mL
  RE (relative error vs spiked): 0.5%
[2]; autosampler 24 h, spiked 800 ng/mL
  RE (relative error vs spiked): −3.4%
[2]
  long-term stability in plasma (in words): stable
[2]; listed as sodiusm danshensu
  long-term stability in plasma (in words): Excellent stability
[2]; beagle dog plasma, ambient temperature for 2 h
  ambient temperature stability in plasma (in words): Excellent stability
[2]; extracted samples kept in the autosampler for 24 h
  autosampler stability (in words): No degradation
[2]; long-term 20 days at −80 °C, spiked 20 ng/mL
  RE (relative error vs spiked): 2.5%
[2]; long-term 20 days at −80 °C, spiked 20 ng/mL, beagle dog plasma
  Measured (mean ± SD): 20.50 ± 1.13 ng/mL
[2]; long-term 20 days at −80 °C, spiked 800 ng/mL
  RE (relative error vs spiked): 3.1%
[2]; long-term 20 days at −80 °C, spiked 800 ng/mL, beagle dog plasma
  Measured (mean ± SD): 825.29 ± 55.20 ng/mL
[2]; three cycles of freezing and thawing
  freeze-thaw stability, deviation of the concentration (in words): within the acceptable limit
[2]; three freeze-thaw cycles at −80 °C, spiked 20 ng/mL
  RE (relative error vs spiked): 7.2%
[2]; three freeze-thaw cycles at −80 °C, spiked 20 ng/mL, beagle dog plasma
  Measured (mean ± SD): 21.45 ± 0.88 ng/mL
[2]; three freeze-thaw cycles at −80 °C, spiked 800 ng/mL
  RE (relative error vs spiked): −0.2%
[2]; three freeze-thaw cycles at −80 °C, spiked 800 ng/mL, beagle dog plasma
  Measured (mean ± SD): 798.54 ± 47.76 ng/mL
